In US6525089B1, “Pharmaceutical composition containing decursin” (Binex Co., Ltd., priority 1998, dated 2003):
Values joined by “and” are separate entries in the source; they are usually repeats but may differ in a detail not shown here. Equal entries are not always repeated. Where two headings read alike, the source gives them in different places.

Assays:
SD rats = test: BUN and creatinine in blood as markers of nephrotoxicity, cisplatin-treated rats; type: in vivo, rat
Experimental: The detailed test methods were summarized hereinafter. BUN (blood urea nitrogen) and creatinine as a marker of nephrotoxicity in the blood, sGPT as a marker of hepatotoxicity, occult blood in the urine, bilirubin, urobilinogen, ketone, protein, nitrite, glucose, pH and specific gravity were determined as follows. […] BUN value was measured using the BUN measurement kit (Youngdong Pharm. Co. Ltd., Korea) in the following procedure. 0.1 ml of urease was added to 20 ml of buffer solution to obtain enzymatic buffer solution. […] The two test tubes were incubated at 37° C. for 15 minutes. Then 2 ml of color-forming solution was added into each test tube and incubated again at 37° C. for 5 minutes. The absorbance was measured at 570 nm to determine the amount of BUN. (2) Measurement of Creatinine Creatinine value was measured using the creatinine measurement kit (Youngdong, Pharm. Co. Ltd., Korea) in the following procedure. 4 ml of tungsten solution was added in 0.5 ml of serum sample to be tested, and stirred vigorously and then left for 10 minutes. […]. Every 3 ml of the supernatant, reference solution of creatinine and distilled water (for blank test) was put to the separate test tubes, followed by the addition of picrate solution (1 ml each). Then 0.5 ml of 1.4N NaOH was added in each tube and stirred to measure the absorbance at 515 nm exactly after the correct lapse of 15 minutes. A total of 10 male SD rats (body weight: 200 g) were used for this experiment. […] The animals were sacrificed and again weighed four days after treatment. […] Blood samples were also taken and left to sit for 30 minutes to isolate the sera, which was used to determine BUN, creatinine and sGPT values as markers of […].

[1] = type: in vivo, rat; details: individual rats 1-4, start 200 g, four days after treatment
Experimental: A total of 10 male SD rats (body weight: 200 g) were used for this experiment. […] The animals were sacrificed and again weighed four days after treatment. […] Blood samples were also taken and left to sit for 30 minutes to isolate the sera, which was used to determine BUN, creatinine and sGPT values as markers of […].

U-937 cells [2] = test: NBT reduction test; type: cell-based, human; details: 1 × 10^−7M, incubated 4 days
Experimental: U-937 cells were plated on a cell culture dish at a concentration of 2×10^5 cells/ml in a medium containing 10^−7M decursin and incubated in a 5% CO2 incubator at 37° C.
In the nitrobluetetrazolium (NBT) reduction test, cell solution (about 1×10^6 cells/ml) was well stirred and pelleted by centrifugation at 2000 rpm for 5 minutes. The pellets were suspended in 0.5 ml of medium, followed by the addition of a mixing solution (0.5 ml) containing 10^−6M formyl-methionine leucine phenylalanine (fMLP) and NBT 1.0 mg/DPBSml (1:9). The mixture was incubated at 37° C. for 30 minutes. The reaction was stopped in ice bath and centrifuged at 2000 rpm for 5 minutes. The supernatant was removed and then 200 μl of DPBS was added. The solution was lightly swayed and checked under a microscope to observe a minimum number of 200 cells. The number of NBT (+) cells was calculated by percentage.
The differentiation was investigated by using the fact that the differentiated leukocyte cells may generate superoxide anion by stimulation. […] The cultured mixture, which was reacted with superoxide, was reduced to form a precipitate. Then NBT was added to the precipitate (Table 7).

U-937 cells [3] = test: Esterase activity test: naphthol AS-D chloroacetate esterase; type: cell-based, human; details: percentage of cells showing activity
Experimental: To determine naphthol AS-D chloroacetate esterase activity, the cultured solution of U-937 cells was pelleted by centrifugation at 2000 rpm for 5 minutes, followed by the addition of 100 μl PBS to prepare a cell-concentrated solution. A drop of the cell solution was put on a slide glass and dried for more than 1 hour. Then 40 ml of deionized water was preheated at 37° C. 1 ml of […] solution was mixed with 1 ml of Fast Red Violet LB base solution and left for 2 minutes. The mixture was added to 40 ml of preheated deionized water. After the addition of 5 ml of TRIZMAL TM 6.3) buffer solution (Sigma Co. T-3128) and 1 ml of naphthol AS-D chloroacetate solution, the resulting solution, which was turned to red color was poured on a petri dish. The cells on a slide glass were fixed with citrate-acetone-formaldehyde solution, (CAF solution) at room temperature. The cells were soaked in the previously prepared solution and incubated at 37° C. for 30 minutes at a dark place. The cells were completely washed with deionized water for more than 2 minutes and counterstained with hematoxylin solution for 2 minutes, washed with tap water and dried in the air. After completely dried, the cells were observed under a microscope to calculate the reddish cell numbers by percentage.
Thus it was considered that the cells were differentiated into macrophage.like cells by the action of decursin.

[4] = tested on: cell lines of uterine cancer, leukemia, hepatoma or large intestine cancer; details: cited from earlier work
[5] = post-treated: decursin 17.4 mg/kg i.p. 1, 24, 48 h after cisplatin 5.8 mg/kg i.p.
[6] = pre-treated: decursin 17.4 mg/kg i.p. 1, 24, 48 h prior to cisplatin 5.8 mg/kg i.p.

**Q.** With CC(C)=CC(=O)O[C@H]1Cc2cc3ccc(=O)oc3cc2OC1(C)C [decursin] as the compound, how does the BUN (SD rats; [5]) read?
**A.** 55.2 ± 2.1 mg/dL

**Q.** And the Creatinine (SD rats; [5])?
**A.** 2.08 ± 0.52 mg/dL

**Q.** And the “reduction of nephrotoxicity (creatinine) compared with the control group receiving cisplatin” value (SD rats; post-treatment group)?
**A.** about 40%

**Q.** And the BUN (SD rats; [6])?
**A.** 17.5 ± 2.8 mg/dL

**Q.** And the Creatinine (SD rats; [6])?
**A.** 0.74 ± 0.29 mg/dL

**Q.** And the Body weight ([1]; post-treatment group (decursin after cisplatin))?
**A.** 190 g and 185 g and 180 g (2×)

**Q.** What about the Body weight ([1]; pre-treatment group (decursin before cisplatin)) of the same compound?
**A.** 184 g and 190 g and 180 g (2×)

**Q.** What about the “NBT reduction test: positive cells” value (U-937 cells [2]) of the same compound?
**A.** 43%

**Q.** And the “NBT reduction test: positive cells” value (U-937 cells [2]; listed as Decursin)?
**A.** 43.1 ± 4.0%

**Q.** And the “Naphtol AS-D chloroacetate esterase Activity (%)” value (U-937 cells [3])?
**A.** 0.0%

**Q.** What about the “concentration at which decursin has toxicity on cancer cell lines” value [4] of the same compound?
**A.** more than 10 ppm
